Assay results from ChEMBL document CHEMBL4431353, “Optimization of a Series of Bivalent Triazolopyridazine Based Bromodomain and Extraterminal Inhibitors: The Discovery of (3R)-4-[2-[4-[1-(3-Methoxy-[1,2,4]triazolo[4,3-b]pyridazin-6-yl)-4-piperidyl]phenoxy]ethyl]-1,3-dimethyl-piperazin-2-one (AZD5153)” (J Med Chem, 2016).
In brackets after ≈: the same amount, converted by molar mass.

How the values were obtained:
[1] = Unbound fraction in human plasma; format: ADME, cell-free
[2] = Volume of distribution at steady state in rat; format: ADME; details: in vivo, read-out: Vdss
[3] = Oral bioavailability in dog; format: ADME, organism-based, Canis lupus familiaris; details: in vivo
[4] = molecular target: T1, Bromodomain-containing protein 4 (Homo sapiens, UniProt O60885); test: Inhibition of BRD4 in human MM1S cells assessed as down regulation of c-Myc incubated for 16 hrs by flow cytometry; format: cell-based
[5] = Unbound fraction in rat plasma; format: ADME, cell-free
[6] = molecular target: T1, Bromodomain-containing protein 4; test: Displacement of Alexa647-labeled JQ1 derivative from wild type BRD4 tandem domain (44 to 460 residues) (unknown origin) incubated for 1 hr by fluorescence polarization assay
[7] = Intrinsic clearance in dog hepatocytes assessed per million cells; format: ADME, cell-based, Canis lupus familiaris, Hepatocyte; details: read-out: CLH
[8] = Oral bioavailability in rat; format: ADME, organism-based; details: in vivo
[9] = Intrinsic clearance in human hepatocytes assessed per million cells; format: ADME, cell-based, Hepatocyte; details: read-out: CLH
[10] = molecular target: Bromodomain-containing protein 4 (Homo sapiens, UniProt O60885, N140A)
[11] = Plasma clearance in dog; format: ADME, Canis lupus familiaris
[12] = Plasma clearance in rat; format: ADME
[13] = molecular target: T1, Bromodomain-containing protein 4; test: Inhibition of BRD4 in human MCF7 cells assessed as down regulation of ERalpha after 18 to 24 hrs by Hoechst staining based cellomics arrayscan analysis; format: cell-based
[14] = molecular target: Bromodomain-containing protein 4 (Homo sapiens, UniProt O60885, N433A)
[15] = Thermodynamic solubility of compound in pH 7.4 solution; format: physicochemical; details: buffer, read-out: Therm_solubility
MM1.S = test: Growth inhibition of human MM1S cells after 72 hrs by alamar blue assay; format: functional
[16] = Lipophilicity, log D of compound at pH 7.4; format: physicochemical; details: buffer
[17] = Dissociation constant, basic pKa of compound; format: physicochemical
[18] = Unbound fraction in dog plasma; format: ADME, cell-free, Canis lupus familiaris
[19] = Volume of distribution at steady state in dog; format: ADME, Canis lupus familiaris; details: in vivo, read-out: Vdss
[20] = Intrinsic clearance in rat hepatocytes assessed per million cells; format: ADME, cell-based, Hepatocyte; details: read-out: CLH
[21] = Apparent permeability from apical to basolateral side in human Caco2 cells; format: ADME, cell-based; details: Caco-2
[22] = molecular target: T1, Bromodomain-containing protein 4; test: Inhibition of BRD4 in human LNCAP cells assessed as down regulation of nuclear AR level by immunofluorescence assay; format: cell-based
[23] = molecular target: T2, Bromodomain-containing protein 3 (Homo sapiens, UniProt Q15059); test: Inhibition of human BRD3 bromodomain 1 expressed in bacterial expression system
[24] = Metabolic stability in hepatic microsomes; format: ADME, Liver, Microsome
MV4-11 = test: Antitumor activity against human MV4-11 cells xenografted in SCID mouse assessed as tumor growth inhibition at 10 mg/kg, po administered daily through oral gavage for 14 days measured twice per week during compound dosing relative to control; format: functional; details: MV4-11, po, 336 h, read-out: TGI
CREB-binding protein = CREB-binding protein (Homo sapiens, UniProt Q92793); test: Inhibition of human CREBBP expressed in bacterial expression system
[25] = molecular target: Transcription initiation factor TFIID subunit 1-like (Homo sapiens, UniProt Q8IZX4); test: Inhibition of human TAF1L bromodomain 2 expressed in bacterial expression system
Mus musculus = test: In vivo inhibition of BRD4 in SCID mouse xenografted with human MV4-11 cells assessed as free plasma concentration required to decrease c-Myc expression in tumor at 10 mg/kg, po administered as single dose measured after 8 hrs by qPCR method; format: functional
[26] = molecular target: T3, Bromodomain testis-specific protein (Homo sapiens, UniProt Q58F21); test: Inhibition of human BRDT bromodomain 1 expressed in bacterial expression system
[27] = molecular target: T1, Bromodomain-containing protein 4; test: Inhibition of human BRD4 bromodomain 2 expressed in bacterial expression system
[28] = molecular target: T4, Bromodomain-containing protein 2 (Homo sapiens, UniProt P25440); test: Inhibition of human BRD2 bromodomain 1 expressed in bacterial expression system
[29] = molecular target: T3, Bromodomain testis-specific protein; test: Inhibition of human BRDT bromodomain 2 expressed in bacterial expression system
[30] = molecular target: T1, Bromodomain-containing protein 4; test: Inhibition of human BRD4 bromodomain 1 expressed in bacterial expression system
[31] = molecular target: T5, Bromodomain-containing protein 9 (Homo sapiens, UniProt Q9H8M2); test: Inhibition of human BRD9 expressed in bacterial expression system
T5 sequence (Q9H8M2 whole entry): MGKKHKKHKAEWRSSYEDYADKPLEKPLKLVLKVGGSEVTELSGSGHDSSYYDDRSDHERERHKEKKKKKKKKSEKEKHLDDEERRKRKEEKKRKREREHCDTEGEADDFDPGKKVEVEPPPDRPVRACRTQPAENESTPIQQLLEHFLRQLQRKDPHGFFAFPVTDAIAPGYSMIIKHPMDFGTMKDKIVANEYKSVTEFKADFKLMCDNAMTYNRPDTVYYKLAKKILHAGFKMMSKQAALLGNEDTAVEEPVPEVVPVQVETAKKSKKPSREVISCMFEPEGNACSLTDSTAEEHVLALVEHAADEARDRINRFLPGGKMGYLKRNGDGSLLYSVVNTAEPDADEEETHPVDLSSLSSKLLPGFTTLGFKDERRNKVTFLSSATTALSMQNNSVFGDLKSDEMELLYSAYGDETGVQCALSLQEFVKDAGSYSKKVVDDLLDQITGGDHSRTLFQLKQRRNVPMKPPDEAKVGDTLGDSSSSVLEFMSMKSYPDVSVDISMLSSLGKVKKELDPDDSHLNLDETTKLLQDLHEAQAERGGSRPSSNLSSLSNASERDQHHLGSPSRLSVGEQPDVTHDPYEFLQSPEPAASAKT

[32] = molecular target: Transcription initiation factor TFIID subunit 1 (Homo sapiens, UniProt P21675); test: Inhibition of human TAF1 bromodomain 2 expressed in bacterial expression system
[33] = molecular target: T4, Bromodomain-containing protein 2; test: Inhibition of human BRD2 bromodomain 2 expressed in bacterial expression system
[34] = molecular target: T2, Bromodomain-containing protein 3; test: Inhibition of human BRD3 bromodomain 2 expressed in bacterial expression system
[35] = Toxicity in SCID mouse xenografted with human MV4-11 cells assessed as body weight loss at 10 mg/kg, po administered daily through oral gavage for 14 days relative to control; format: organism-based; details: in vivo, 336 h
[36] = molecular target: Histone acetyltransferase p300 (Homo sapiens, UniProt Q09472); test: Inhibition of human EP300 expressed in bacterial expression system

T4 sequence (P25440 whole entry): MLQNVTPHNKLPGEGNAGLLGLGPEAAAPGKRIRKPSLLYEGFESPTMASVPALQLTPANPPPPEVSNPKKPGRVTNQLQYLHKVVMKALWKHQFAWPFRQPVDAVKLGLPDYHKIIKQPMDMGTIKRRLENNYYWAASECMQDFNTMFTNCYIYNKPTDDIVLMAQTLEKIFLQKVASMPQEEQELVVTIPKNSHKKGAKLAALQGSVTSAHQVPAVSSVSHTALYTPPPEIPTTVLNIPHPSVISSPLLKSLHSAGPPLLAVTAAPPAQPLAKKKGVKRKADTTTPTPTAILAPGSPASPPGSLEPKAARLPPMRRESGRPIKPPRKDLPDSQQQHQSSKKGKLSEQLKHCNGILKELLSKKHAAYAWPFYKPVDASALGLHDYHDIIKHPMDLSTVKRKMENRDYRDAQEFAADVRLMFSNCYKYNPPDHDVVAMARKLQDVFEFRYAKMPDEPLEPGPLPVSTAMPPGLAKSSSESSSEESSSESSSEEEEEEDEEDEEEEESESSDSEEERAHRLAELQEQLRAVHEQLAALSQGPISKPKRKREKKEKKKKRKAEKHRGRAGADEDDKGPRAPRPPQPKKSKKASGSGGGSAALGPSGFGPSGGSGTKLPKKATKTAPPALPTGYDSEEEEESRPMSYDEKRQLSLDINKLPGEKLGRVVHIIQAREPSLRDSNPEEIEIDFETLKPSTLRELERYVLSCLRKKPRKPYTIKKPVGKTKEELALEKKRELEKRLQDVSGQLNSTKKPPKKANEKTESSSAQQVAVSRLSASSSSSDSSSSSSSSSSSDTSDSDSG
T2 sequence (Q15059 whole entry): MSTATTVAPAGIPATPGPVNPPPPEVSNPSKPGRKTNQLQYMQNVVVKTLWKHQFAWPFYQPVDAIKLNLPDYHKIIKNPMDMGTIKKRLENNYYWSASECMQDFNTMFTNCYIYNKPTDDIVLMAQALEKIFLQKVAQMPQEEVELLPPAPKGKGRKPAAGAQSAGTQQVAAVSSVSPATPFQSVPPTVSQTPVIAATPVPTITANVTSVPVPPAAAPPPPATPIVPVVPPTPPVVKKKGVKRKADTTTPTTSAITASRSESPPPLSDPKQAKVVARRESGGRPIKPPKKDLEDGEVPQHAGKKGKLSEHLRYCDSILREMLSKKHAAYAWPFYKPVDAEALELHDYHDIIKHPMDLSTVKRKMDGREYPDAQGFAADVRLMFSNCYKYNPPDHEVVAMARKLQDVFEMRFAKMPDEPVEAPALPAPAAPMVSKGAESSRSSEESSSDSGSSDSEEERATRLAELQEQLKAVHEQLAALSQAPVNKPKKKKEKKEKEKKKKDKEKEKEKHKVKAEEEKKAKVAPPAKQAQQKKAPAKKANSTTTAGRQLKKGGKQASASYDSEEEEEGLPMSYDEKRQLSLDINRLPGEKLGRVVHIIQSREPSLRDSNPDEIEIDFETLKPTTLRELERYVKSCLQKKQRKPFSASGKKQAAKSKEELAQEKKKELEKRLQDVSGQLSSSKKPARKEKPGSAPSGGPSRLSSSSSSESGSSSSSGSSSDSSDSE
Transcription initiation factor TFIID subunit 1-like, sequence (Q8IZX4 whole entry): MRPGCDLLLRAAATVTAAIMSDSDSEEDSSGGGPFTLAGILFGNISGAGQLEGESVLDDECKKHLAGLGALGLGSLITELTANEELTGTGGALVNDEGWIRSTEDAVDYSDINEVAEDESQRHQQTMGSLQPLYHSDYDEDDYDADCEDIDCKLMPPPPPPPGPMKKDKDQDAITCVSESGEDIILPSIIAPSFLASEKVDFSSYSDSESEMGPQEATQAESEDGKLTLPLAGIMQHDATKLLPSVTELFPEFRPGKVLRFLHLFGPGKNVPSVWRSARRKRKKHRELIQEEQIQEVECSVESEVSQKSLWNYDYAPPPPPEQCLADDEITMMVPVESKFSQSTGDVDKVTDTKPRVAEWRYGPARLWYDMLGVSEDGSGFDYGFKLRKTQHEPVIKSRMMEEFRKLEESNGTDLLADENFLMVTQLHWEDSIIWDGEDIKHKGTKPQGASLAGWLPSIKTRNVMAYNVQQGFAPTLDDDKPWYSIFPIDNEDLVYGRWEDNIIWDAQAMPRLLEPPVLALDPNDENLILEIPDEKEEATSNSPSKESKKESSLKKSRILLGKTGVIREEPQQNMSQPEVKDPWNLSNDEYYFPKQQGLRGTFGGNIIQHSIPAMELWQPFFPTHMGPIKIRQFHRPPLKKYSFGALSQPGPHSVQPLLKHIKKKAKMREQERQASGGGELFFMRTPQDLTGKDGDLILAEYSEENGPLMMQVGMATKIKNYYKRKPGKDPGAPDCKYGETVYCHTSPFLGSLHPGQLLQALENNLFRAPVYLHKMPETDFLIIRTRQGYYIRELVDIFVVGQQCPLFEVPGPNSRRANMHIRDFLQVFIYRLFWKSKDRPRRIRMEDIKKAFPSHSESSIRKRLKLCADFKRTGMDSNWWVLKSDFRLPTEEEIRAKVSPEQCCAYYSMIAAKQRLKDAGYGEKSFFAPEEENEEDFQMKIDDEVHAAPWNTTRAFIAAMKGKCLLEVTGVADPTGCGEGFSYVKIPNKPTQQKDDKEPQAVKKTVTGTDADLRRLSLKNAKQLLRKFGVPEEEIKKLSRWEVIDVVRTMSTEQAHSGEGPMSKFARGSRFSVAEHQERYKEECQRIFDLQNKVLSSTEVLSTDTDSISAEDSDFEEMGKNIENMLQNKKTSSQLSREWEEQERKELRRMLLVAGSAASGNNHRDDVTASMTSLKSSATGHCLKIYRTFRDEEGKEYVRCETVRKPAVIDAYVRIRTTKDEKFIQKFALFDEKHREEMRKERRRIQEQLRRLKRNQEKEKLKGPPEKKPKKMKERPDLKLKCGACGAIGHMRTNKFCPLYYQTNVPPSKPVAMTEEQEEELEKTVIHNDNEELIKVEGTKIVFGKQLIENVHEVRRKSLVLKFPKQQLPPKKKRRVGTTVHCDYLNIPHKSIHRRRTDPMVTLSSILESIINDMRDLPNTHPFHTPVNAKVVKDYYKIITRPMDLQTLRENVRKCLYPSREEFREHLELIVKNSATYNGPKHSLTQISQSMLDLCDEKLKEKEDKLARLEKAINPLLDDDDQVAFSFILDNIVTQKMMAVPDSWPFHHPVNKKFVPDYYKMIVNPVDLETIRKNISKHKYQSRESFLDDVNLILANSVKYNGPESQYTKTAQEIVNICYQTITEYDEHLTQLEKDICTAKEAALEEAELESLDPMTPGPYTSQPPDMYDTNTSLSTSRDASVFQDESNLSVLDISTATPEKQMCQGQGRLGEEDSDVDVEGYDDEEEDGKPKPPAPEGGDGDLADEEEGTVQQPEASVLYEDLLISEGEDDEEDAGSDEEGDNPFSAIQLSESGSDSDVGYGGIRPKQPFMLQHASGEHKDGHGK

| Structure (SMILES) | fraction unbound [1] | Vd [2] | bioavailability [3] | IC50 [4] | fraction unbound [5] | Ki [6] | hepatocyte CLint [7] | bioavailability [8] | hepatocyte CLint [9] | Ki [10] | clearance [11] | clearance [12] | IC50 [13] | Ki [14] | solubility thermodynamic [15] | GI50 (MM1.S) | logD [16] | fraction unbound [18] | Vd [19] | hepatocyte CLint [20] | further results |
| --- | --- | --- | --- | --- | --- | --- | --- | --- | --- | --- | --- | --- | --- | --- | --- | --- | --- | --- | --- | --- | --- |
| COc1nnc2ccc(N3CCC(c4ccc(CCN5CCN(C)C(=O)[C@H]5C)cc4)CC3)nn12 | 0.25 | 0.7 L/kg | 98% | 10 nM | 0.02 | 3.16 nM | < 1 µL/min/1e6 cells | 72% | 2 to 2.2 µL/min/1e6 cells | 126 nM | 3 mL/min/kg | 3 mL/min/kg | 25.1 nM | 100 nM | 280 to 570 µM (≈ 130 to 264 µg/mL) | 5.01 nM | 2.5 | 0.24 | 0.9 L/kg | < 1 µL/min/1e6 cells | pKa [17]: 6.3; Papp A→B [21]: 28 ×10⁻⁶ cm/s |
| COc1nnc2ccc(N3CCC(c4ccc(N5CC(CN6CCN(C)C(=O)[C@H]6C)C5)cc4)CC3)nn12 | 0.32 | 1.61 L/kg | 73% | < 2 nM | 0.05 | 10 nM | 3 µL/min/1e6 cells | 57% | 4 to 4.1 µL/min/1e6 cells | 100 nM | 5 mL/min/kg | 7 mL/min/kg | 3.98 nM | 158 nM | 460 to 1000 µM (≈ 232 to 505 µg/mL) | 1.58 nM | 1.7 | 0.27 | 0.7 L/kg | < 1 µL/min/1e6 cells | pKa [17]: 5.9; Papp A→B [21]: 46 ×10⁻⁶ cm/s |
| C[C@@H]1C(=O)N(C)CCN1CCOc1ccc(C2CCN(c3ccc4nnc(N(C)C)n4n3)CC2)cc1 | 0.16 | 0.4 L/kg |  | 15.8 nM | 0.04 | 12.6 nM | 18 µL/min/1e6 cells | 42% | 4 to 4.4 µL/min/1e6 cells | 316 nM |  | 6 mL/min/kg | 63.1 nM | 316 nM | 1600 to 1680 µM (≈ 788 to 828 µg/mL) | 3.16 nM | 2.4 | 0.09 |  | 13 µL/min/1e6 cells | IC50 [22]: 25.1 nM |
| C[C@@H]1C(=O)N(C)CCN1CCOc1ccc(C2CCN(c3ccc4nnc(Cl)n4n3)CC2)cc1 |  |  |  | 79.4 nM |  | 12.6 nM |  |  | 24 µL/min/1e6 cells | 316 nM |  |  | 39.8 nM | 200 nM | 63 µM (≈ 30.5 µg/mL) | 19.9 nM | 3.1 |  |  |  | IC50 [22]: 25.1 nM |
| COc1nnc2ccc(N3CCC(c4ccc(OCCN5[C@H](C)CN(C(C)=O)C[C@@H]5C)cc4)CC3)nn12 | 0.19 | 1.5 L/kg | 28% | < 2 nM | 0.06 | 1.58 nM | 7 µL/min/1e6 cells | 40% | 12 µL/min/1e6 cells | 15.8 nM | 11 mL/min/kg | 17 mL/min/kg | 1.58 nM | 50.1 nM | > 1000 µM | < 2 nM | 2.5 | 0.16 | 0.6 L/kg | 13 µL/min/1e6 cells | pKa [17]: 6.2; Papp A→B [21]: 30 ×10⁻⁶ cm/s |
| COc1nnc2ccc(N3CCC(c4ccc(OCCN5CCN(C)C(=O)[C@H]5C)cc4)CC3)nn12 [AZD-5153] | 0.23 | 0.9 L/kg | 55% | 12.6 nM | 0.04 | 5.01 nM | < 1 µL/min/1e6 cells | 81% | 3.5 to 4 µL/min/1e6 cells | 158 nM | 6 mL/min/kg | 4 mL/min/kg | 25.1 nM | 126 nM | 1600 to 1650 µM (≈ 767 to 791 µg/mL) | 5.01 nM | 2.3 | 0.24 | 0.4 L/kg | 5 µL/min/1e6 cells | Ki [23]: 63.1 nM; Stability [24]: Stable; inhibition in vivo at 10 mg/kg (MV4-11): > 100%; Ki (CREB-binding protein): 6310 nM; Ki [25]: 2510 nM; Cp(f) (Mus musculus): <0.2 µM; IC50 [22]: 20 nM; Ki [26]: 100 nM; Ki [27]: 126 nM; Ki [28]: 100 nM; Ki [29]: 501 nM; Ki [30]: 50.1 nM; Ki [31]: 2510 nM; Ki [32]: 1260 nM; Ki [33]: 251 nM; Ki [34]: 398 nM; Activity [35]: 8%; Papp A→B [21]: 40 ×10⁻⁶ cm/s; Ki [36]: < 10000 nM |
